# In the supplement of paper PMC13380429:
# Assays:
# Conditions in all cases: 72 h
# HepG2 [1] = experiment: cell viability relative to DMSO; higher = less toxic
# Vero E6 [2] = experiment: as above
# Caco-2 [3] = experiment: as above
# Calu-3 [4] = experiment: as above
# U2OS [5] = experiment: as above
# HepG2 [6] = experiment: relative viability EC50 (midpoint between 100% and the lowest measured viability); higher = less toxic
# Vero E6 [7] = experiment: as above
# Caco-2 [8] = experiment: as above
# Calu-3 [9] = experiment: as above
# U2OS [10] = experiment: as above
# HepG2 [11] = experiment: drug sensitivity score (DSS) for viability; higher = more toxic; extreme values may be limits of the assay
# Vero E6 [12] = experiment: as above
# Caco-2 [13] = experiment: as above
# Calu-3 [14] = experiment: as above
# U2OS [15] = experiment: as above
Compound,cell viability (HepG2 [1]; 1 nM) [%],cell viability (HepG2 [1]; 10 nM) [%],cell viability (HepG2 [1]; 100 nM) [%],cell viability (HepG2 [1]; 1000 nM) [%],cell viability (HepG2 [1]; 10000 nM) [%],cell viability (Vero E6 [2]; 1 nM) [%],cell viability (Vero E6 [2]; 10 nM) [%],cell viability (Vero E6 [2]; 100 nM) [%],cell viability (Vero E6 [2]; 1000 nM) [%],cell viability (Vero E6 [2]; 10000 nM) [%],cell viability (Caco-2 [3]; 1 nM) [%],cell viability (Caco-2 [3]; 10 nM) [%],cell viability (Caco-2 [3]; 100 nM) [%],cell viability (Caco-2 [3]; 1000 nM) [%],cell viability (Caco-2 [3]; 10000 nM) [%],cell viability (Calu-3 [4]; 1 nM) [%],cell viability (Calu-3 [4]; 10 nM) [%],cell viability (Calu-3 [4]; 100 nM) [%],cell viability (Calu-3 [4]; 1000 nM) [%],cell viability (Calu-3 [4]; 10000 nM) [%],cell viability (U2OS [5]; 1 nM) [%],cell viability (U2OS [5]; 10 nM) [%],cell viability (U2OS [5]; 100 nM) [%],cell viability (U2OS [5]; 1000 nM) [%],cell viability (U2OS [5]; 10000 nM) [%],relative viability EC50 (HepG2 [6]) [µM],relative viability EC50 (Vero E6 [7]) [µM],relative viability EC50 (Caco-2 [8]) [µM],relative viability EC50 (Calu-3 [9]) [µM],relative viability EC50 (U2OS [10]) [µM],drug sensitivity score (HepG2 [11]),drug sensitivity score (Vero E6 [12]),drug sensitivity score (Caco-2 [13]),drug sensitivity score (Calu-3 [14]),drug sensitivity score (U2OS [15])
C[C@]12CC[C@@H]3c4ccc(OC(=O)N(CCCl)CCCl)cc4CC[C@H]3[C@@H]1CC[C@@H]2OP(=O)(O)O [estramustine-phosphate],98.3,90.8,101,95.4,104,95.1,103,94.9,107,92.8,115,89.9,92.2,94.3,94.9,99,105,90.2,99.9,116,102,100,98.7,97.3,99.1,> 10,> 10,> 10,> 10,> 10,0,0,0,0,0
CCOc1ccccc1C(N)=O [ethenzamide],101,94.9,95.4,102,91.2,104,98.1,101,92.6,97.3,100,97,97.6,98.9,103,95.3,101,99.5,98.1,103,106,97.9,100,98.2,100,> 10,> 10,> 10,> 10,> 10,0,0,0,0,0
CCNC1=Nc2ccc(Cl)cc2C(C)(c2ccccc2)O1 (stereo not given) [etifoxine],95.7,100,101,107,95.3,94.8,98.1,95.5,99.3,112,90.1,102,96.1,92.2,97.3,94.4,97.2,102,102,90.7,92.1,96.9,99.8,98.3,98,> 10,> 10,> 10,> 10,> 10,0,0,0,0,0
OC[C@H]1NCC[C@@H](O)[C@@H]1O [fagomine],98.9,97.4,93.3,90.2,94.6,95.6,93.5,93.1,94.5,92.7,89,91.9,93.8,87.2,87.9,111,103,97,104,99.8,97.9,100,93.8,97.1,94.8,> 10,> 10,> 10,> 10,> 10,0,0,0.3,0,0
NC(N)=Nc1nc(CSCC/C(N)=N/S(N)(=O)=O)cs1 [famotidine],106,102,90.4,97.5,93.4,113,106,89.2,101,94.3,107,106,108,97.2,109,107,91.5,113,105,97.7,94.3,95.4,99.6,95,99.4,> 10,> 10,> 10,> 10,> 10,0,0,0,0,0
NC(=O)OCC(COC(N)=O)c1ccccc1 [felbamate],96.5,94.7,102,106,98.5,87.8,89.8,99.6,90.3,104,92.9,97.2,95.9,99.1,97.1,91,95.8,91.5,123,98.1,97.8,102,97.6,107,104,> 10,> 10,> 10,> 10,> 10,0,0,0,0,0
O=C(CCCl)NCCc1ccccc1 [fenaclon],104,111,99.3,119,96.2,104,105,100,103,91.3,81.8,126,93.7,84.5,109,105,99.1,97.4,96,88.3,101,96.9,100,92.6,103,> 10,> 10,> 10,> 10,> 10,0,0,0,0,0
